This experiment addresses T1, IRAK4 (Homo sapiens, UniProt Q9NWZ3).
T1 construct: expressed in transfected cells; host or cells: THP1 (THP1-HIBiT-IRAK4 engineered line)
T1 sequence (Q9NWZ3 1-460): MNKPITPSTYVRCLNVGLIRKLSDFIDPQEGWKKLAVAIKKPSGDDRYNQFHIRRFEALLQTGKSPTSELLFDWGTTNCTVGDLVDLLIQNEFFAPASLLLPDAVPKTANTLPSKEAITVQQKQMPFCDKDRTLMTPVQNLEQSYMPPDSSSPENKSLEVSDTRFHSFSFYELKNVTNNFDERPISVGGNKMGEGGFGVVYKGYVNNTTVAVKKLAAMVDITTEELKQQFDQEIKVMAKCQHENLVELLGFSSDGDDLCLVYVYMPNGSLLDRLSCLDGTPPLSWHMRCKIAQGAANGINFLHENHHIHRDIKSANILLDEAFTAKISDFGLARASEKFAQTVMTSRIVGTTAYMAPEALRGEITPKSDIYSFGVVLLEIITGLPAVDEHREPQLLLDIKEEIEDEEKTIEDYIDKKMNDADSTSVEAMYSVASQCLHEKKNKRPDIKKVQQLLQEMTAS
Kind of experiment: HiBiT-based intracellular degradation assay of THP1-HIBiT-IRAK4 cells. The format is cell-based. The conditions noted are these: half-maximal degradation concentration of IRAK4 protein, 24 h incubation. The protocol: HiBiT-based intracellular degradation assay of THP1-HIBiT-IRAK4 cells
THP1-HIBiT-IRAK4 cells were cultured in RPMI 1640 medium supplemented with 10% fetal bovine serum (FBS) and 1% penicillin-streptomycin (PS) (37°C and 5% CO2). The THP1-HIBiT-IRAK4 cells were inoculated in a 384-well plate at 5000 cells/40 µL/well. Compound solutions with different concentrations were added at 40 nL/well and incubated for 24 h at 37°C in 5% CO2. HiBiT lysis detection reagents were added to the wells, the plate was incubated for 30 min at room temperature, and luminescence values were read on Envision. [formula]
The DC50 (half-maximal degradation concentration) of each compound was obtained using XLfit software and the following nonlinear fitting equation: Y = bottom + (top−bottom)/(1+10^(∧)((LogDC50−X)×Hillslope)). [formula]
X denotes a log value of the compound concentration.
Y denotes the degradation rate.
Table 1 lists the results of DC50 values of IRAK4 protein degradation. […]
For the molecule `CC(C)(O)c1cc2nc(C3CCN(CCOCCNc4cccc5c4C(=O)N(C4CCC(=O)NC4=O)C5=O)CC3)cn2cc1NC(=O)c1cccc(C(F)(F)F)n1` (stereo not shown) [Comparative Example 1, N-(2-(1-(2-(2-((2-(2,6-dioxopiperidin-3-yl)-1,3-dioxoisoindolin-4-yl)amino)ethoxy)ethyl)piperidin-4-yl)-7-(2-hydroxypropan-2-yl)imidazo[1,2-a]pyridin-6-yl)-6-(trifluoromethyl)pyridine-2-carboxamide, reference compound], the DC50 – broadly, the concentration giving 50% degradation – is more than 10000 nM. Then `CC(C)(O)c1cc2nc(C3CCN(CCCCC#Cc4cccc5c4CN(C4CCC(=O)NC4=O)C5=O)CC3)cn2cc1NC(=O)c1cccc(C(F)(F)F)n1` (stereo not shown) [Comparative Example 2, N-(2-(1-(6-(2-(2,6-dioxopiperidin-3-yl)-1-oxoisoindolin-4-yl)hex-5-yn-1-yl)piperidin-4-yl)-7-(2-hydroxypropan-2-yl)imidazo[1,2-a]pyridin-6-yl)-6-(trifluoromethyl)pyridine-2-carboxamide, reference compound], with more than 10000 nM. Then `CC(C)(O)c1cc2nc(C3CCN(CC(=O)N4CCN(c5ccc6c(c5)C(=O)N(C5CCC(=O)NC5=O)C6=O)CC4)CC3)cn2cc1NC(=O)c1cccc(C(F)(F)F)n1` (stereo not shown) [Example 2, N-(2-(1-(2-(4-(2-(2,6-dioxopiperidin-3-yl)-1,3-dioxoisoindolin-5-yl)piperazin-1-yl)-2-oxoethyl)piperidin-4-yl)-7-(2-hydroxypropan-2-yl)imidazo[1,2-a]pyridin-6-yl)-6-(trifluoromethyl) pyridine-2-carboxamide], with 4.46 nM; and `CC(C)(O)c1cc2nc(C3CCN(CCC(=O)N4CCN(c5ccc6c(c5)C(=O)N(C5CCC(=O)NC5=O)C6=O)CC4)CC3)cn2cc1NC(=O)c1cccc(C(F)(F)F)n1` (stereo not shown) [Example 3, N-(2-(1-(3-(4-(2-(2,6-dioxopiperidin-3-yl)-1,3-dioxoisoindolin-5-yl)piperazin-1-yl)-3-oxopropyl)piperidin-4-yl)-7-(2-hydroxypropan-2-yl)imidazo[1,2-a]pyridin-6-yl)-6-(trifluoromethyl)pyridine-2-carboxamide], with 13.9 nM. With `CC(C)(O)c1cc2nc(C3CCN(CCCC(=O)N4CCN(c5ccc6c(c5)C(=O)N(C5CCC(=O)NC5=O)C6=O)CC4)CC3)cn2cc1NC(=O)c1cccc(C(F)(F)F)n1` (stereo not shown) [Example 4, N-(2-(1-(4-(4-(2-(2,6-dioxopiperidin-3-yl)-1,3-dioxoisoindolin-5-yl)piperazin-1-yl)-4-oxobutyl)piperidin-4-yl)-7-(2-hydroxypropan-2-yl)imidazo[1,2-a]pyridin-6-yl)-6-(trifluoromethyl)pyridine-2-carboxamide], the DC50 is 5.05 nM. Take `CC(C)(O)c1cc2nc(C3CCN(CC(=O)N4CCC5(CC4)CN(c4ccc6c(c4)C(=O)N(C4CCC(=O)NC4=O)C6=O)C5)CC3)cn2cc1NC(=O)c1cccc(C(F)(F)F)n1` (stereo not shown) [Example 5, N-(2-(1-(2-(2-(2-(2,6-dioxopiperidin-3-yl)-1,3-dioxoisoindolin-5-yl)-2,7-diazaspiro[3.5]nonan-7-yl)-2-oxoethyl)piperidin-4-yl)-7-(2-hydroxypropan-2-yl)imidazo[1,2-a]pyridin-6-yl)-6-(trifluoromethyl)pyridine-2-carboxamide]: the DC50 came out at 3.69 nM. Then `CC(C)(O)c1cc2nc(C3CCN(CC(=O)N4CC5(CCN(c6ccc7c(c6)C(=O)N(C6CCC(=O)NC6=O)C7=O)CC5)C4)CC3)cn2cc1NC(=O)c1cccc(C(F)(F)F)n1` (stereo not shown) [Example 6, N-(2-(1-(2-(7-(2-(2,6-dioxopiperidin-3-yl)-1,3-dioxoisoindolin-5-yl)-2,7-diazaspiro[3.5]nonan-2-yl)-2-oxoethyl)piperidin-4-yl)-7-(2-hydroxypropan-2-yl)imidazo[1,2-a]pyridin-6-yl)-6-(trifluoromethyl)pyridine-2-carboxamide], with 7.83 nM.

Source of the values: patent publication EP4748840A1, “IMIDAZO[1,2-A]PYRIDINE TYPE IRAK DEGRADATION AGENT AND USE THEREOF” (TAINUORUI (TIANJIN) BIOTECHNOLOGY CO., LTD, priority 2023, dated 2025).
